Assay [1] has as its target T1, A156T mutant of the HCV NS3/4A 1b protease enzyme (Hepatitis C virus genotype 1b, UniProt P26663, A1182T).
T1 construct: 10× stocks of NS3/4A protease enzyme from Bioenza (Mountain View, Calif.); purchased Bioenza (Mountain View, Calif.)
As to the kind of experiment: HCV Protease FRET Assay (IC50), A156T mutant. It is filed as biochemical.

Assay [2] has as its target HCV NS3/4A protease (UniProt Q9WMX2). Briefly: Method B: HCV Protease Assay using FRET Methodology. More on the design: species or system Hepatitis C virus. The text has this:
Method B: HCV Protease Assay using FRET Methodology
A quantitative, fluorescence resonance energy transfer (FRET)-based methodology was employed to identify HCV NS3/4A protease inhibitors. The assay employed a synthetic FRET peptide, derived from the HCV NS5A/5B cleavage site, with the HCV protease to evaluate the activity of compounds against the protease by monitoring the cleavage activity of the complex. A synthetic peptide which encompasses the NS5A-5B junction (NH2-EDVVCCSMSYK-COOH) was labeled with Dabcyl and Edans at N- and C-termini, respectively (Invitrogen, Carlsbad, Calif.). Fluorescence measurement was used to estimate the IC50 value of the test compound. […] Upon cleavage of the FRET peptide by HCV NS3/4A proteinase complex (100 ng/mL), the fluorescence is recovered and can be continuously monitored at excitation/emission=340/490 nm.

In assay [3] the target is T2, HCV NS3/4A wild type (genotype 1b) (Hepatitis C virus genotype 1b, UniProt P26663).
T2 construct: mass spectroscopic analysis of HCV NS3/4A wild-type protease domain; purchased Bioenza Calif
As to the kind of experiment: Mass spectrometric analysis (MALDI-TOF) of covalent modification, HCV wild type. The note with it: 10-fold excess of compound to protein, 3 hrs. The assay is classed as binding. How it is done: Mass spectrometric analysis of HCV wild type or HCV variant C159S in the presence of test compound was performed. 100 pmols of HCV wild type (Bioenza Calif.) was incubated with compound for 1 hr and 3 hrs at 10-fold access of […] to protein. 1 ul aliquots of the samples (total volume of 4.24 ul) were diluted with 10 ul of 0.1% TFA prior to micro C4 ZipTipping directly onto the MALDI target using Sinapinic acid as the desorption matrix (10 mg/ml in 01% TFA:Acetonitrile 50:50). Analyses were performed on a Shimadzu Biotech Axima TOF^2 (Shimadzu Instruments) matrix-assisted-laser desorption/ionization Time-of-Flight (MALDI-TOF) mass spectrometer. The same procedure was carried out on 100 pmols of HCV C159S mutant of HCV protease for 3 hrs at 10-fold excess of (I-3) to protein.
As depicted in FIGS. 2, 3, 4, and 5, mass spectrometric analysis of HCV wild type or HCV mutants in the presence of test compound (I-3) was performed. […] 1 ul aliquots of the samples were diluted with 10 ul of 0.1% TFA prior to micro C4 ZipTipping directly onto the MALDI target using Sinapinic acid as the desorption matrix (10 mg/ml in 0.1% TFA:Acetonitrile 50:50).
Mass spectrometric analysis of HCV wild type (genotype 1b) in the presence of test compounds I-73 and I-75 was performed using the following protocol: HCV NS3/4A wild type (wt) was incubated for 1 hr at a 10× fold access of test compound to protein. 2 ul aliquots of the samples were diluted with 10 ul of 0.1% TFA prior to micro C4 ZipTipping directly onto the MALDI target using Sinapinic acid as the desorption matrix (10 mg/ml in 0.1% TFA:Acetonitrile 50:50). For intact protein mass measurement the instrument was set in Linear mode using a pulsed extraction setting of 24,500 and apomyoglobin as the standard to calibrate the instrument.
Mass spectrometric analysis of HCV NS3/4A genotypes 1a, 1b, 2a, and 3a in the presence of test compound I-96 was performed using the following protocol: HCV NS3/4A was incubated for 3 hr at a 10× fold access of test compound to protein. […]

Where [4] appears, read: read-out: Inhibition, HCV A156T, A156T enzyme, FRET assay.

Experimental findings from US8309685B2 (Celgene Avilomics Research, Inc., priority 2007, dated 2012) are described below.

Where two headings read alike, the source gives them in different places.

For the molecule `C=CC(=O)NC[C@H](NC(=O)OC(C)(C)C)C(=O)N1C[C@H](Oc2cc(-c3ccccc3)nc3cc(OC)ccc23)C[C@H]1C(=O)N[C@]1(C(=O)NS(=O)(=O)c2ccccc2)C[C@H]1C=C` [Compound I-3, N-[(1,1-dimethylethoxy)carbonyl]-3-[(2-propenoyl)amino]-L-alanyl-(4R)-4-[(7-methoxy-2-phenyl-4-quinolinyl)oxy]-L-prolyl-1-amino-2-ethenyl-N-(phenylsulfonyl)-(1R,2S)-cyclopropanecarboxamide], the IC50 in assay [1] (read-out: Comparative IC50 Values, A156T, biochemical assay) was 18 nM; in assay [1] (setting [4]) it was 10 to 100 nM; in assay [2] (Enzyme/Assay: Biochemical; read-out: Inhibition, Biochemical), 10 to 100 nM.

On to `C=C[C@@H]1C[C@]1(NC(=O)[C@@H]1C[C@@H](Oc2cc(-c3ccccc3)nc3cc(OC)ccc23)CN1C(=O)[C@H](CNC(=O)CCl)NC(=O)OC(C)(C)C)C(=O)NS(=O)(=O)c1ccccc1` [Compound I-7, N-[(1,1-dimethylethoxy)carbonyl]-3-[(chloroacetyl)amino]-L-alanyl-(4R)-4-[(7-methoxy-2-phenyl-4-quinolinyl)oxy]-L-prolyl-1-amino-2-ethenyl-N-(phenylsulfonyl)-(1R,2S)-cyclopropanecarboxamide], for which the IC50 in assay [1] (setting [4]) is 10 to 100 nM; in assay [2] (read-out: Inhibition, Biochemical; Enzyme/Assay: Biochemical) it was 10 to 100 nM.

Take `C=CC(=O)NCC(=O)N1C[C@H](Oc2cc(-c3ccccc3)nc3cc(OC)ccc23)C[C@H]1C(=O)N[C@]1(C(=O)NS(=O)(=O)c2ccccc2)C[C@H]1C=C` [Compound I-27, (2S,4R)-1-(2-acrylamidoacetyl)-4-(7-methoxy-2-phenylquinolin-4-yloxy)-N-((1R,2S)-1-(phenylsulfonylcarbamoyl)-2-vinylcyclopropyl)pyrrolidine-2-carboxamide]: in assay [1] (setting [4]), the IC50 lay within 10 to 100 nM. Besides, in assay [3], the “Covalent modification of HCV wild type by mass spectrometry” value is listed as “near complete covalent modification”.
